Data on one molecule can be found in US20160271160A1, “HCV POLYMERASE INHIBITORS” (MEDIVIR AB, priority 2013, published 2016).

What all share (format): cell-based
One assay has as its system HCV GT4a S282T. Nature of the assay: HCV GT4a S282T chimeric mutant replicon. From the text: (§1) The compound of Example 2 was further evaluated to assess the antiviral activity against genotypes 1-6 of HCV, both wild type and a number of clinically relevant mutant strains. The result of the evaluation together with the average EC50 of a genotypes and the corresponding values for compound 40ii of WO2014/058801 are summarised in Tables 2 and 3.

For assay [1], the system named is HCV GT3a NS5B in con1 background. Nature of the assay: HCV GT3a chimeric replicon. As to conditions: Hepatitis C virus.
Description: as §1

Assay [2] concerns HCV GT6a NS5B in con1 background. Nature of the assay: HCV GT6a chimeric replicon. To be noted: Hepatitis C virus.
Description: as §1

In another assay the test system is HCV GT1b (stable). As to the kind of experiment: HCV GT1b (stable) replicon. As to conditions: Hepatitis C virus, wild type, geometric mean.
Description: as §1

Assay [3] concerns HCV GT4a NS5B in con1 background. Nature of the assay: HCV GT4a chimeric replicon. As to conditions: Hepatitis C virus.
Description: as §1

For another assay, the system named is HCV GT1b (transient). As to the kind of experiment: HCV GT1b (transient) replicon. To be noted: Hepatitis C virus, wild type, geometric mean.
Description: as §1

For a further assay, the system named is HCV GT2a virus. As to the kind of experiment: HCV GT2a virus. To be noted: Hepatitis C virus, wild type, geometric mean.
Description: as §1

For the next assay, the system named is HCV GT1a S282T. As to the kind of experiment: HCV GT1a S282T chimeric mutant replicon.
Description: as §1

The next assay deals with HCV mutant strains. As to the kind of experiment: Mutant HCV panel, average.
Description: as §1

Assay [4] has as its system HCV GT5a NS5B in con1 background. As to the kind of experiment: HCV GT5a chimeric replicon. To be noted: Hepatitis C virus.
Description: as §1

In assay [5] the test system is HCV GT1a NS5B in con1 background. Nature of the assay: HCV GT1a chimeric replicon. To be noted: Hepatitis C virus.
Description: as §1

In a further assay the test system is HCV GT3a S282T. Nature of the assay: HCV GT3a S282T chimeric mutant replicon.
Description: as §1

The subject of the next assay is HCV GT1b S282T. Nature of the assay: HCV GT1b S282T mutant replicon.
Description: as §1

For assay [6], the system named is genotypes 1-6 of HCV, wild type. Nature of the assay: Wild type HCV genotype panel, average.
Description: as §1

Consider `CC(C)OC(=O)[C@H](C)OP(=O)(OC[C@H]1O[C@@H](n2ccc(=O)[nH]c2=O)[C@](C)(Cl)[C@@H]1O)Oc1ccccc1` (some centres unmarked) [Cpd. 40ii of WO2014/058801], for which the “FC vs WT” value in the assay on HCV GT4a S282T (HCV GT4a S282T, fold change of EC50) came to 12; with HCV GT1a S282T (HCV GT1a S282T, fold change of EC50), 4.0; in the assay with HCV GT3a S282T (HCV GT3a S282T, fold change of EC50), 2.6; in the assay with HCV GT1b S282T (fold change of EC50), 3.7. The concentration for a half-maximal effect (EC50) in the assay with HCV GT4a S282T (Hepatitis C virus, GT4A) worked out at 1720 nM; in [1], 139 nM; in [2], 170 nM; with HCV GT1b (stable) it was 91 nM; in assay [3], 149 nM; in the assay on HCV GT1b (transient) it was 93 nM. The EC50 was 26 nM with HCV GT2a virus; 554 nM in the assay on HCV GT1a S282T (Hepatitis C virus, GT1A); 746 nM in the assay with HCV mutant strains (Hepatitis C virus, read-out: AVG EC50); 105 nM in assay [4]; 140 nM in assay [5]; 366 nM with HCV GT3a S282T (Hepatitis C virus, GT3A). Moreover, the concentration giving a half-maximal response (EC50) amounted to 344 nM in the assay with HCV GT1b S282T (Hepatitis C virus, geometric mean) and 114 nM in assay [6] (Hepatitis C virus, wild type assays, arithmetic mean +/− SEM). Further, the “potency increase vs cpd. 40ii of WO2014/058801” value in the assay on HCV mutant strains ({}) was 1.0; in assay [6] (wild type, from AVG EC50), 1.0.
